These results are taken from ChEMBL document CHEMBL6083257, “Discovery of small molecules for autophagy-lysosome degradation of immune checkpoint proteins” (Eur J Med Chem, 2024).

In series [1] the target is Programmed cell death protein 1/Programmed cell death 1 ligand 1 (Homo sapiens, UniProt Q15116+Q9NZQ7). The series can be described thus: Inhibition of PD-1/PD-L1 interaction (unknown origin) incubated for 90 min by TR-FRET assay. In kind it is protein-complex assay. A general note: In TR-FRET formats the signal depends on donor and acceptor labels being close together.

Series [2] deals with RKO. The series can be described thus: AUTAC (autophagy-targeting chimera) activity at PD-L1 in human RKO cells assessed as autophagy-lysosome mediated protein degradation at 2 uM measured after 24 hrs by ECL substrate based Western blotting analysis. Type of series: cell-based.
In series [3] the test system is RKO. The series can be described thus: AUTAC (autophagy-targeting chimera) activity at PD-L1 in human RKO cells assessed as autophagy-lysosome mediated protein degradation measured after 24 hrs by ECL substrate based Western blotting analysis. Type of series: cell-based. Conditions: dose 0.5-2 µM. On the technique in general: In western blotting, separated proteins are transferred to a membrane and probed.

In series [4] the test system is HepG2. The experiment in a line: Induction of VISTA degradation in human HepG2 cells assessed as decrease in VISTA protein level at 5 uM using ECL as substrate incubated for 1 hrs by immunoblot analysis. In kind it is cell-based.
The subject of series [5] is HepG2. The series can be described thus: Induction of VISTA degradation in human HepG2 cells assessed as decrease in VISTA protein level at 5 uM using ECL as substrate incubated for 1 hrs by immunoblot analysis relative to control. In kind it is cell-based. Further details: scale not given: the % may be the effect or the level left.
Series [6] deals with RKO. The series can be described thus: AUTAC (autophagy-targeting chimera) activity at PD-L1 in human RKO cells assessed as autophagy-lysosome mediated protein degradation at 1 uM measured after 24 hrs by ECL substrate based Western blotting analysis. In kind it is cell-based.
For series [7], the system named is RKO. The series can be described thus: AUTAC (autophagy-targeting chimera) activity at PD-L1 in human RKO cells assessed as autophagy-lysosome mediated protein degradation at 4 uM measured after 24 hrs by ECL substrate based Western blotting analysis. In kind it is cell-based.
The subject of series [8] is RKO. The series can be described thus: AUTAC (autophagy-targeting chimera) activity at PD-L1 in human RKO cells assessed as autophagy-lysosome mediated protein degradation by measuring protein level at 0.5 uM measured after 24 hrs by ECL substrate based Western blotting analysis relative to control. Type of series: cell-based.
For series [9], the system named is RKO. The series can be described thus: AUTAC (autophagy-targeting chimera) activity at PD-L1 in human RKO cells assessed as autophagy-lysosome mediated protein degradation by measuring protein level at 1 uM measured after 24 hrs by ECL substrate based Western blotting analysis relative to control. In kind it is cell-based.
Series [10] deals with RKO. The series can be described thus: AUTAC (autophagy-targeting chimera) activity at PD-L1 in human RKO cells assessed as autophagy-lysosome mediated protein degradation by measuring protein level at 2 uM measured after 24 hrs by ECL substrate based Western blotting analysis relative to control. In kind it is cell-based.
For series [11], the system named is RKO. The series can be described thus: AUTAC (autophagy-targeting chimera) activity at PD-L1 in human RKO cells assessed as autophagy-lysosome mediated protein degradation by measuring protein level at 4 uM measured after 24 hrs by ECL substrate based Western blotting analysis relative to control. Type of series: cell-based.
For series [12], the system named is RKO. The series can be described thus: Upregulation of autophagy lysosome related Atg9b gene expression in human RKO cells at 5 uM incubated for 24 hrs by qRT-PCR analysis. In kind it is functional, cell-based.
The test system of series [13] is RKO. The experiment in a line: Upregulation of autophagy lysosome related Lamp1 gene expression in human RKO cells at 5 uM incubated for 24 hrs by qRT-PCR analysis. Type of series: functional, cell-based.
The subject of series [14] is RKO. The series can be described thus: Upregulation of autophagy lysosome related Mitf gene expression in human RKO cells at 5 uM incubated for 24 hrs by qRT-PCR analysis. Type of series: functional, cell-based. On the technique in general: In qPCR the cycle at which signal appears reflects the starting amount.
Series [15] relates to RKO. The experiment in a line: AUTAC (autophagy-targeting chimera) activity at PD-L1 in human RKO cells assessed as autophagy-lysosome mediated protein degradation by measuring reduced PD-L1 level at 0.5 uM incubated for 24 hrs by ECL substrate based Western blotting analysis relative to control. In kind it is cell-based. Further details: scale not given: the % may be the effect or the level left.

The subject of series [16] is RKO. The series can be described thus: AUTAC (autophagy-targeting chimera) activity at PD-L1 in human RKO cells assessed as autophagy-lysosome mediated protein degradation by measuring reduced PD-L1 level at 1 uM incubated for 24 hrs by ECL substrate based Western blotting analysis relative to control. Also noted: scale not given: the % may be the effect or the level left. In kind it is cell-based.

The subject of series [17] is RKO. The experiment in a line: AUTAC (autophagy-targeting chimera ) activity in autophagy-lysosome mediated PD-L1 degradation in human RKO cells assessed as PD-L1 degradation at 0.5 uM using ECL as substrate incubated for 24 hrs in presence of Cycloheximide by immunoblot analysis. In kind it is cell-based.
Series [18] relates to RKO. The series can be described thus: AUTAC (autophagy-targeting chimera ) activity in autophagy-lysosome mediated PD-L1 degradation in human RKO cells assessed as PD-L1 degradation at 0.5 uM using ECL as substrate incubated for 24 hrs in presence of 3-methyladenine by immunoblot analysis. Type of series: cell-based.
Series [19] deals with RKO. The experiment in a line: AUTAC (autophagy-targeting chimera ) activity in autophagy-lysosome mediated PD-L1 degradation in human RKO cells assessed as PD-L1 degradation at 10 uM using ECL as substrate incubated for 24 hrs in presence of pepstainA by immunoblot analysis. Type of series: cell-based.
Series [20] deals with RKO. The series can be described thus: AUTAC (autophagy-targeting chimera ) activity in autophagy-lysosome mediated PD-L1 degradation in human RKO cells assessed as PD-L1 degradation at 50 uM using ECL as substrate incubated for 24 hrs in presence of chloroquine by immunoblot analysis. Type of series: cell-based.
The test system of series [21] is RKO. The experiment in a line: Induction of autophagy in human RKO cells assessed as increase LC3II expression at 1 uM incubated for 24 hrs in presence of 3-methyladenine by immunoblot analysis. Type of series: functional, cell-based.
In series [22] the test system is RKO. The experiment in a line: Induction of autophagosome lysosome fusion in human RKO cells transfected with Ad-mCherry-GFP-LC3B incubated for 24 hrs by inverted fluorescence microscope analysis. Type of series: functional, cell-based.
The subject of series [23] is CT26. The series can be described thus: In vivo antitumor activity against mouse CT26 cells implanted in male BALB/c mouse model assessed reduced tumor growth oral administration once daily. In kind it is functional, organism-based. Conditions: dose 30-120 mg/kg.
The test system of series [24] is CT26. The series can be described thus: In vivo antitumor activity against mouse CT26 cells implanted in male BALB/c mouse model assessed reduced tumor growth at 60 mg/kg oral administration once daily. Type of series: functional, organism-based.
The nature of series [25]: Toxicity in male BALB/c mouse model mouse implanted in CT26 cells assessed as body weight loss at 120 mg/kg, po. Conditions: in vivo. Type of series: organism-based.
Series [26] can be described thus: Toxicity in male BALB/c mouse model mouse implanted in CT26 cells assessed as mortality at 120 mg/kg, po. In kind it is organism-based. The following applies: in vivo.
Series [27] deals with CT26. The experiment in a line: Antitumor immunity against mouse CT26 cells implanted in male BALB/c mouse model assessed as increase infiltration of CD8+ cells at 30 to 120 mg/kg, po. Type of series: functional, organism-based. The following applies: dose 30-120 mg/kg.
The test system of series [28] is CT26. The experiment in a line: In vivo antitumor activity against mouse CT26 cells implanted in male BALB/c mouse model assessed as decrease PD-L1 in tumor tissue at 120 mg/kg, po incubated for overnight by immunohistochemistry. Type of series: functional, organism-based.

As a reminder, the pIC50 is the IC50 on a negative log10 scale, so that one unit is a factor of ten.

pIC50: −log10 of the molar value. The source made the active and inactive calls. The rule behind the calls is not given here.

Sequence of Programmed cell death protein 1/Programmed cell death 1 ligand 1 (Q15116 whole entry): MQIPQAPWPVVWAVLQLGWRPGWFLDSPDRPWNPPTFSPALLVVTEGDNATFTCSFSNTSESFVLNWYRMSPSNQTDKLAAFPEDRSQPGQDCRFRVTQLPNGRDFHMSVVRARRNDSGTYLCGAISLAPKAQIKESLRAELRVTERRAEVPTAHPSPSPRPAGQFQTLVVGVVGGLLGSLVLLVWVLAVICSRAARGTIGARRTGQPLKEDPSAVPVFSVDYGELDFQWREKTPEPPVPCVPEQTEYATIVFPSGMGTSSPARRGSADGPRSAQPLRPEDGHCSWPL
Sequence of Programmed cell death protein 1/Programmed cell death 1 ligand 1 (Q9NZQ7 whole entry): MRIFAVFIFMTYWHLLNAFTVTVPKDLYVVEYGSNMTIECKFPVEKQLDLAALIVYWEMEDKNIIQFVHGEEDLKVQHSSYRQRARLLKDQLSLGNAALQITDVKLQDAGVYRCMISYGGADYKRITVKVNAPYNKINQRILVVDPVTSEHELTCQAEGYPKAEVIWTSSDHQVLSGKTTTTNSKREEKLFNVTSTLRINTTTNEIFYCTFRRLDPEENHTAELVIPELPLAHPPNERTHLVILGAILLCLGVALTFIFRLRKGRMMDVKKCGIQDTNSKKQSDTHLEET

With `Cc1c(-c2ccccc2)cccc1-c1nnc(Nc2cccc(CNCCOCCOCCOCCNCc3cccc(Nc4nnc(-c5cccc(-c6ccccc6)c5C)o4)c3)c2)o1`, the negative logarithm of the IC50 (pIC50) in [1] was 7.61. For the same compound, the outcome with RKO [2] was Active. For the same compound, the Activity entry in the series on RKO [3] is “Dose-dependent-effect”.

On to `Cc1c(-c2ccccc2)cccc1-c1nnc(Nc2cccc(CNCCOCCOCCOCCNCc3cccc(-c4nc5ccc(-c6ccccc6)c(C)c5[nH]4)c3)c2)o1`, for which the outcome with HepG2 [4] was Active.

For `Cc1c(-c2ccccc2)ccc2nc(-c3cccc(CNCCOCCOCCOCCNCc4cccc(Nc5nnc(-c6ccccc6)o5)c4)c3)[nH]c12`, in the series on HepG2 [4], the result was Active. In addition, the Activity in the series on HepG2 [5] stood at 89%.

Regarding `Cc1c(-c2ccccc2)cccc1-c1nnc(Nc2cccc(CNCCOCCOCCOCCOCCNCc3cccc(-c4nc5ccc(-c6ccccc6)c(C)c5[nH]4)c3)c2)o1`, in the series with HepG2 [4], the result was Active.

In series [1], `Cc1c(-c2ccccc2)cccc1-c1nnc(Nc2cccc(CNCCOCCOCCOCCOCCOCCNCc3cccc(Nc4nnc(-c5ccccc5)o4)c3)c2)o1` showed a pIC50 of 7.64.

`Cc1c(-c2ccccc2)cccc1-c1nnc(Nc2cccc(CNCCOCCOCCNCc3cccc(Nc4nnc(-c5cccc(-c6ccccc6)c5C)o4)c3)c2)o1` gave a pIC50 in series [1] of 7.59.

`Cc1c(-c2ccccc2)cccc1-c1nnc(Nc2cccc(CNCCOCCOCCOCCNCc3cccc(Nc4nnc(-c5ccccc5)o4)c3)c2)o1` gave a pIC50 in series [1] of 7.55. The Activity result in the series on RKO [3] was “Dose-dependent-effect”; with RKO [8], 90%; with RKO [9], 72%; in the series with RKO [10] it was 44%; in the series on RKO [11] it was 4%. Also, the outcome with RKO [6] and in the series with RKO [7] was Active.

For the compound `OCCNCc1cccc(Nc2nnc(-c3ccccc3)o2)c1`, the pIC50 in series [1] is < 6.00. Also, the outcome with RKO [12], with RKO [13] and in the series on RKO [14] was Active.

With `Cc1c(-c2ccccc2)cccc1-c1nnc(Nc2cccc(CNCCOCCOCCNCc3cccc(Nc4nnc(-c5ccccc5)o4)c3)c2)o1`, the pIC50 in [1] is 7.51.

As for `CNc1cccc(CNCCOCCOCCOCCNCc2cccc(Nc3nnc(-c4cccc(-c5ccccc5)c4C)o3)c2)c1`, in series [1], the negative logarithm of the IC50 (pIC50) was 7.65. For the same compound, the Activity entry with RKO [3] is “Dose-dependent-effect”; with RKO [8], 93%; with RKO [10] it was 33%; with RKO [11] it was 28%.

For the compound `CNc1cccc(CNCCO)c1`, in series [1], the pIC50 is < 6.00. Also, the outcome in the series with RKO [12], in the series on RKO [13] and with RKO [14] was Active.

In turn, `Cc1c(-c2ccccc2)cccc1-c1nnc(Nc2cccc(CNCCOCCNCc3cccc(Nc4nnc(-c5cccc(-c6ccccc6)c5C)o4)c3)c2)o1` showed a pIC50 in series [1] of 7.40.

In the case of `Cc1c(-c2ccccc2)ccc2nc(-c3cccc(CNCCOCCOCCOCCOCCNCc4cccc(Nc5nnc(-c6ccccc6)o5)c4)c3)[nH]c12`, in the series with HepG2 [4], the result was Active. Moreover, the Activity with HepG2 [5] came to 87%.

`Cc1c(-c2ccccc2)cccc1-c1nnc(Nc2cccc(CNCCOCCOCCOCCOCCNCc3cccc(Nc4nnc(-c5ccccc5)o4)c3)c2)o1` showed a pIC50 in series [1] of 7.64. Also, the Activity result in the series with RKO [3] is “Dose-dependent-effect”; with RKO [15] it was 70%; with RKO [16], 90%; with CT26 [23], “Dose-dependent-effect”; in series [25], “Non-toxic”; in series [26], “Non-toxic”. Also, the result with RKO [17], in the series with RKO [18], with RKO [19], with RKO [20], in the series with RKO [21] and in the series with RKO [22] was Active. Besides, the result in the series on CT26 [24], in the series on CT26 [27] and in the series with CT26 [28] was Active.
